Counter-ions that a name gives are not always drawn.
Test system: Demodex
Assay: Acaricidal experiment: in vitro culture of Demodex with compound solutions, time to death of mites
Conditions: 50 μl, 20° C., 96% humidity
Procedure: In this study, Demodex was collected from patients diagnosed with ocular Demodex infection. Those meeting the inclusion criteria would be enrolled after an informed conversation and signing an informed consent form.
Demodex detection was performed according to the conventional eyelash microscopic examination method. 3 eyelashes were extracted from each eyelid, and a total of 12 eyelashes were extracted. The extracted eyelashes were immediately placed on a glass slide, and one piece of each three eyelashes was placed under an ordinary light microscope for observation. Demodex at all stages were counted and classified according to morphology (specific criteria were: Demodex brevis at a head-to-body ratio of 1:1 and Demodex folliculorum at a head-to-body ratio of 1:3 to 1:4). Only adults that were fully exposed to the field of view were taken as subjects (larvae and eggs were not considered as subjects since they were more fragile in early life).
Based on the above detection of Demodex, 50 μl of different solutions were added to each slide, and the survival of the worms was observed every 1 hour. The death was judged by observing whether the worms were active (body, limbs, or the like) under a microscope. Two skilled Demodex-related experimenters observed and judged separately during the experiment. If the judgment results were different, the third skilled experimenter was asked to make an independent judgment. The culture in vitro was performed in a climate chamber at 20° C. and 96% humidity. Slides were transported in a humid chamber under observation and the solution was added appropriately to ensure high humidity before vacuoles appeared on solution evaporation.

Molecule | Average survival time of mites (compound 10 mg/mL in 0.9% NaCl) [h] | other results
C[C@@H]1CC[C@H]2C(C)(C)[C@H]3C[C@@]12CC[C@@]3(C)O [Cedrol] | <20.04 ± 1.84 | –
CCc1ccc(C)c2ccc(C)c-2c1 [Chamazulene] | 11.49 ± 3.93 | –
CN/C(=N/CCSCc1nc[nH]c1C)NC#N [Cimetidine] | 53 | –
COc1cc(N)c(Cl)cc1C(=O)NC1CCN(CCCOc2ccc(F)cc2)CC1OC (stereo not drawn) [Cisapride] | 72 | –
COC(=O)[C@H](c1ccccc1Cl)N1CCc2sccc2C1 [Clopidogrel Bisulfate] | 23 | –
Clc1ccccc1C(c1ccccc1)(c1ccccc1)n1ccnc1 [Clotrimazole] | – | Average survival time of mites (compound 0.3 mg/mL in 0.9% NaCl): ~33.01 h; Average survival time of mites (compound 3 mg/mL in 0.9% NaCl): ~23.63 h
COc1cc(/C=C/C(=O)CC(=O)/C=C/c2ccc(O)c(OC)c2)ccc1O [Curcumin] | 45 | –
CCOC(=O)C1=C(C)NC(C)=C(C(=O)OC)C1c1cccc(Cl)c1Cl (stereo not drawn) [Felodipine] | 71 | –
CCC(C)n1ncn(-c2ccc(N3CCN(c4ccc(OCC5COC(Cn6cncn6)(c6ccc(Cl)cc6Cl)O5)cc4)CC3)cc2)c1=O (stereo not drawn) [Itraconazole] | 96 | –
CC(=O)N1CCN(c2ccc(OCC3COC(Cn4ccnc4)(c4ccc(Cl)cc4Cl)O3)cc2)CC1 (stereo not drawn) [Ketoconazole] | 97 | –
N#Cc1ccc(C(c2ccc(C#N)cc2)n2cncn2)cc1 [Letrozole] | 72 | –
CC12CC3CC(C)(C1)CC(N)(C3)C2 [Memantine HCl] | 17 | –
COc1c2occc2cc2ccc(=O)oc12 [Methoxsalen] | 18 | –
Cc1ncc([N+](=O)[O-])n1CCO [Metronidazole] | 67 | –
CO[C@@H]1[C@H](N(C)C(=O)c2ccccc2)C[C@H]2O[C@]1(C)n1c3ccccc3c3c4c(c5c6ccccc6n2c5c31)C(=O)NC4 [Midostaurin] | 42 | –
CC(C)(O)c1ccccc1CC[C@@H](SCC1(CC(=O)O)CC1)c1cccc(/C=C/c2ccc3ccc(Cl)cc3n2)c1 [Montelukast Sodium] | 5 | –
Cc1ccccc1C(OCCN(C)C)c1ccccc1 (stereo not drawn) [Orphenadrine Citrate] | 4.35 ± 2.05 | Average survival time of mites (compound 1 mg/mL in 0.9% NaCl): ~7.09 ± 1.44 h
Fc1ccc([C@@H]2CCNC[C@H]2COc2ccc3c(c2)OCO3)cc1 [Paroxetine] | – | Average survival time of mites (compound 1 mg/mL in 0.9% NaCl): 2.44 ± 2.04 h
Cc1cc(O)c(C(=O)CCC(C)C)c(=O)o1 [Pogostone] | 1.90 ± 1.06 | –
O=c1c(O)c(-c2ccc(O)c(O)c2)oc2cc(O)cc(O)c12 [Quercetin] | 4 | –
C=C[C@H]1C[N@@]2CC[C@H]1C[C@@H]2[C@@H](O)c1ccnc2ccc(OC)cc12 [Quinidine sulfate] | 5 | Average survival time of mites (compound 1 mg/mL in 0.9% NaCl): 8.33 ± 4.02 h; Average survival time of mites (compound 5 mg/mL in 0.9% NaCl): 5.35 ± 2.09 h
CN[C@H]1CC[C@@H](c2ccc(Cl)c(Cl)c2)c2ccccc21 [Sertraline HCl] | 2.50 ± 1.37 | Average survival time of mites (compound 1 mg/mL in 0.9% NaCl): 9.07 ± 6.72 h
Nc1ccc(S(=O)(=O)Nc2ccnn2-c2ccccc2)cc1 [Sulfaphenazole] | 70 | –
S=P(N1CC1)(N1CC1)N1CC1 [Thiotepa] | 22 | –
N[C@@H]1C[C@H]1c1ccccc1 [Tranylcypromine HCl] | 2.89 ± 1.08 | Average survival time of mites (compound 1 mg/mL in 0.9% NaCl): 7.44 ± 6.07 h; Average survival time of mites (compound 3 mg/mL in 0.9% NaCl): 5.66 ± 0.91 h; Average survival time of mites (compound 30 mg/mL in 0.9% NaCl): 2.24 ± 1.32 h
C[C@@H](c1ncncc1F)[C@](O)(Cn1cncn1)c1ccc(F)cc1F [Voriconazole] | 72 | –
C=C1CC[C@@]23C[C@@H]1C(C)(C)[C@@H]2CC[C@H]3C [β-cedrene] | 42.57 ± 8.89 | –
alpha-bisabolol | 7.60 ± 2.60 | –

From patent US20240269066A1, “USE OF CYP450 INHIBITOR IN INHIBITING OR KILLING MITES AND TREATING XEROPHTHALMIA” (PRECVISION BIOTECHNOLOGIES LTD., priority 2021, published 2024)
